Data from patent US11510932B2, “Prophylactic and therapeutic treatment of alzheimer's disease using phytic acid and phytate to reduce amyloid beta plaque and tau protein” (priority 2009, dated 2022).

Key:
[1] = system: NGF-differentiated PC12 cells; conditions: 10 μM; cited from earlier work
MC65 cells [2] = assay: APP CTF-induced neurotoxicity (cell viability) in MC65 cells; conditions: for attenuation of APP CTF-induced neurotoxicity (active/inactive): in vitro challenge test
amyloid-B peptide (AB) = conditions: transgenic Alzheimer Disease mouse studies; cited from earlier work
[3] = system: transgenic mouse model of Alzheimer's Disease; conditions: cited from earlier work
[4] = system: Alzheimer's transgenic mice; assay: Toxicity and weight loss in treated Alzheimer's transgenic mice; type: in vivo; conditions: 2% phytic acid in drinking water, about six months
Description: (§1) Applicant also submits Table 1 and FIGS. 4-6 showing data from in vivo testing of the subject matter compounds in Alzheimer's transgenic mice. These Alzheimer's transgenic mice are genetically altered to produce Abeta plaque, and were treated for about six months with compounds of the Applicant's invention. Namely, the drinking water was infused with phytic acid so that the final concentration of phytic acid in the drinking water was 2%.

Abeta plaque = Abeta plaque in brains of Alzheimer's transgenic mice versus control vehicle; type: in vivo; conditions: 2% phytic acid, all three cases (FIGS. 4-6)
Description: as §1
After six months, the animals were put down for autopsy and necropsy so that Abeta plaque in the brains was assayed, separated and weighed.
FIGS. 4-6 are graphs comparing the tested compound in vivo with the control vehicle.

[5] = humans, ingestion of large doses; cited from earlier work
MC65 cells [6] = assay: Oxidative stress associated with APP CTF expression, hydrogen peroxide in cell media; type: cell-based, human; conditions: 100 μM
Description: In vitro studies were conducted in MC65 cells, an established human neuroblastoma line that conditionally expresses the first 17 amino-terminal residues and the 99 carboxy-terminal residues of amyloid precursor protein (APP CTF). Detectable APP CTF expression occurs within 3-4 h of tetracycline withdrawal, appearance of aggregates and initial losses of culture viability occurs at about 2 days and near complete death occurs by approximately 3 days.

O[C@H]1[C@H](O)[C@@H](O)[C@H](O)[C@@H](O)[C@@H]1O [scyllo inositol]
rescue from Ab-induced neurotoxicity [1]: rescues | attenuation of APP CTF-induced neurotoxicity (active/inactive) (MC65 cells [2]): inactive | aggregation of amyloid-B peptide (AB) (amyloid-B peptide (AB)): inhibits and blocks the aggregation | prevention and reversal of Alzheimer's Disease [3]: prevent and reverse Alzheimer's Disease

O[C@H]1[C@H](O)[C@@H](O)[C@H](O)[C@@H](O)[C@H]1O [myo inositol, reference compound]
rescue from Ab-induced neurotoxicity [1]: rescues | attenuation of APP CTF-induced neurotoxicity (active/inactive) (MC65 cells [2]): inactive

O=P(O)(O)O[C@H]1[C@H](OP(=O)(O)O)[C@@H](OP(=O)(O)O)[C@H](OP(=O)(O)O)[C@@H](OP(=O)(O)O)[C@H]1OP(=O)(O)O [phytic acid, myo-inositol-hexakis (dihydrogen phosphate)]
EC50 (MC65 cells [2]; Homo sapiens, MC65, read-out: EC50 concentration, protection from APP CTF-induced death): ~100 µM | protection from cytotoxicity (MC65 cells [2]; MC65 cells, concentrations of 200 μM and higher): near complete protection | attenuation of APP CTF-induced neurotoxicity (active/inactive) (MC65 cells [2]): active | toxicity in the treated group [4]: no toxicity | weight loss in the treated group [4]: nor any significant weight loss | Abeta plaque compared to the control vehicle (Abeta plaque): reduction in Abeta plaque | physiological discomfort or symptoms of toxicological action [5]: elicits no physiological discomfort or symptoms of any toxicological action | oxidative stress associated with APP CTF expression (hydrogen peroxide in the cell media) (MC65 cells [6]): suppressed oxidative stress
